These results are taken from ChEMBL document CHEMBL6114972, “Proteolysis targeting chimera of BI-2536 induces potent dual degradation of PLK1 and BET proteins” (Bioorg Med Chem, 2025).

pIC50: −log10 of the molar value. Active and inactive are the calls of the source. The rule behind the calls is not given here.

Test [1] deals with K562. Nature of the test: Cytotoxicity against human K562 cells assessed as reduction in cell viability measured after 3 days by CCK-8 assay. The test is classed as functional, cell-based. The conditions noted are these: K562, 72 h.
The target in test [2] is von Hippel-Lindau disease tumor suppressor/Serine/threonine-protein kinase PLK1 (Homo sapiens) (UniProt P53350+P40337). Nature of the test: Protac activity at VHL/PLK1 in human HeLa cells assessed as PLK1 degradation at 500 nM measured after 12 hrs by Western blot analysis. The test is classed as cell-based. (In western blotting, separated proteins are transferred to a membrane and probed.)

For test [3], the system named is CWR22R. The experiment in a line: Cytotoxicity against human 22Rv1 cells assessed as reduction in cell viability measured after 3 days by CCK-8 assay. The note with it: 22Rv1, 72 h. The test is classed as functional, cell-based. On the technique in general: Formazan colour is commonly taken as a measure of viable cells.
Test [4] concerns HeLa. Nature of the test: Cytotoxicity against human HeLa cells assessed as reduction in cell viability measured after 3 days by CCK-8 assay. It counts as functional, cell-based. The note with it: 72 h.
The target in test [5] is von Hippel-Lindau disease tumor suppressor/Bromodomain-containing protein 4 (Homo sapiens) (UniProt O60885+P40337). Nature of the test: Protac activity at VHL/BRD4 in human HeLa cells assessed as BRD4 degradation at 500 nM measured after 12 hrs by Western blot analysis. It counts as cell-based.
For test [6], the system named is MDA-MB-231. The experiment in a line: Cytotoxicity against human MDA-MB-231 cells assessed as reduction in cell viability measured after 3 days by CCK-8 assay. The test is classed as functional, cell-based. The conditions noted are these: MDA-MB-231, 72 h.
Test [7] has as its target T1, Protein cereblon/Serine/threonine-protein kinase PLK1 (Homo sapiens, UniProt P53350+Q96SW2). The experiment in a line: Protac activity at CRBN/PLK1 in human 22Rv1 cells assessed as PLK1 degradation at 10 nM measured after 36 hrs by Western blot analysis. It counts as cell-based.
Test [8] addresses T1, Protein cereblon/Serine/threonine-protein kinase PLK1. The experiment in a line: Protac activity at CRBN/PLK1 in human HeLa cells assessed as PLK1 degradation at 500 nM measured after 12 hrs by Western blot analysis. It counts as cell-based.
The target in test [9] is T2, Protein cereblon/Bromodomain-containing protein 4 (Homo sapiens, UniProt O60885+Q96SW2). The experiment in a line: Protac activity at CRBN/BRD4 in human HeLa cells assessed as BRD4 degradation at 20 nM measured after 24 hrs by Western blot analysis. The test is classed as cell-based.
The target of test [10] is T2, Protein cereblon/Bromodomain-containing protein 4. Nature of the test: Protac activity at CRBN/BRD4 in human HeLa cells assessed as BRD4 degradation at 500 nM measured after 12 hrs by Western blot analysis. The test is classed as cell-based.
In test [11] the target is T1, Protein cereblon/Serine/threonine-protein kinase PLK1. Nature of the test: Protac activity at CRBN/PLK1 in human 22Rv1 cells assessed as PLK1 degradation at 5 to 10 nM measured after 36 hrs by Western blot analysis. The test is classed as cell-based. The conditions noted are these: dose 5-10 nM.
The test system of test [12] is HeLa. Nature of the test: Induction of degradation of PLK1 in human HeLa cells at 500 nM measured after 12 hrs by Western blot analysis. The test is classed as cell-based.
Test [13] relates to HeLa. The experiment in a line: Induction of degradation of BRD4 in human HeLa cells at 500 nM measured after 12 hrs by Western blot analysis. The test is classed as cell-based.

Sequence of von Hippel-Lindau disease tumor suppressor/Bromodomain-containing protein 4 (Homo sapiens) (P40337 whole entry, looked up, other chains not shown): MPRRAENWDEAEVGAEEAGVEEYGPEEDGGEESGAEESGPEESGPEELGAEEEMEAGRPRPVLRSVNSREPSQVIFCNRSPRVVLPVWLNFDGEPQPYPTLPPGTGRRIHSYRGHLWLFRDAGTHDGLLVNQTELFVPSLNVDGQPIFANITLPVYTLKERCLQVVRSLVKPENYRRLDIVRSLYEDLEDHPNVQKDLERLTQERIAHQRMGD
Sequence of von Hippel-Lindau disease tumor suppressor/Serine/threonine-protein kinase PLK1 (Homo sapiens) (P40337 whole entry, looked up): as the sequence (P40337 whole entry, looked up, other chains not shown) above
Sequence of von Hippel-Lindau disease tumor suppressor/Serine/threonine-protein kinase PLK1 (Homo sapiens) (P53350 whole entry, looked up): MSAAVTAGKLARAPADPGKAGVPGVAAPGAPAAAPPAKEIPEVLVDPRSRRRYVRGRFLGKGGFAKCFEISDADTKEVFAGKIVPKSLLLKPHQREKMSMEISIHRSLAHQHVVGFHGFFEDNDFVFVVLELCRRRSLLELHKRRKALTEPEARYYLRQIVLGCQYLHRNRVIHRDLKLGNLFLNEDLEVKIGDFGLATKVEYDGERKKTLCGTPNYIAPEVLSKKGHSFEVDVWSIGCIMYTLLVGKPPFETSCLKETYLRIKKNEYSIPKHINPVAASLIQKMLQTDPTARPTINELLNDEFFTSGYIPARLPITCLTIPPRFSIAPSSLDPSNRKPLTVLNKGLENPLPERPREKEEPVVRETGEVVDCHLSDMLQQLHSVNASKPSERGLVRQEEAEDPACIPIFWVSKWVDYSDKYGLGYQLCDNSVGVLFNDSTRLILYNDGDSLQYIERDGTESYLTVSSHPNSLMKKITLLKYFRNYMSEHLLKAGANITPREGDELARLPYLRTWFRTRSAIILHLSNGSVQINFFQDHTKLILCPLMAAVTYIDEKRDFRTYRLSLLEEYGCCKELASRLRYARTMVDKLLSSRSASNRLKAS
T2 sequence (Q96SW2 whole entry, looked up, other chains not shown): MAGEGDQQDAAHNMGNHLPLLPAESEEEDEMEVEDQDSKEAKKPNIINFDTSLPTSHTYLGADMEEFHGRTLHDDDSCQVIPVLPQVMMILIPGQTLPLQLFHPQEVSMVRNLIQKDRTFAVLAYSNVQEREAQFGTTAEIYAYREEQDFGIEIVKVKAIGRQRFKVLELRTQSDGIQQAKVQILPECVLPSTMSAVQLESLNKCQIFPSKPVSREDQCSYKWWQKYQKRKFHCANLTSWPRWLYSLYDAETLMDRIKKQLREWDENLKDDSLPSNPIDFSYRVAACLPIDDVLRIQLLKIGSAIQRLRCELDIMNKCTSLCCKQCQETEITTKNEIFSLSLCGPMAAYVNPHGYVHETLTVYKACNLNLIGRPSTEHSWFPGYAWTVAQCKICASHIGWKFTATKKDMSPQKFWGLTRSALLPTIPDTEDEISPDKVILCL
T1 sequence (P53350 2-603 limits assumed): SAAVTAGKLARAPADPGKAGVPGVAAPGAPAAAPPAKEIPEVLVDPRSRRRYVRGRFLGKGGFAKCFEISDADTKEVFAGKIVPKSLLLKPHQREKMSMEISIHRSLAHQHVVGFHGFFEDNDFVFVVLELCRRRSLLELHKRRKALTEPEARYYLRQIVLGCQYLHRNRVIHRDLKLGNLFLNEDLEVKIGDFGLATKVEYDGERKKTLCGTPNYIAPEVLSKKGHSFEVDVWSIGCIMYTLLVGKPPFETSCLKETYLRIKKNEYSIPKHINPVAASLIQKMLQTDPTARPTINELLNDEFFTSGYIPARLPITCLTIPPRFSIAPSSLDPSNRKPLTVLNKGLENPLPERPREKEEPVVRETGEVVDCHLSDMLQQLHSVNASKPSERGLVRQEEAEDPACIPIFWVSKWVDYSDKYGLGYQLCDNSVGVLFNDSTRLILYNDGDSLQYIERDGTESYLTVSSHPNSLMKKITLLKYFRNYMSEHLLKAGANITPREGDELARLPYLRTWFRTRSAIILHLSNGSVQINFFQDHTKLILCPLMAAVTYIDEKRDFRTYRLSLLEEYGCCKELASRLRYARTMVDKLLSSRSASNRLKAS
T1 sequence (Q96SW2 whole entry partner): as the sequence (Q96SW2 whole entry, looked up, other chains not shown) above

Usually pIC50 stands for the IC50 on a negative log10 scale, so that one unit is a factor of ten. Take `CC[C@@H]1C(=O)N(C)c2cnc(Nc3ccc(C(=O)NC4CCN(CCCCCC(=O)N[C@H](C(=O)N5C[C@H](O)C[C@H]5C(=O)NCc5ccc(-c6scnc6C)cc5)C(C)(C)C)CC4)cc3OC)nc2N1C1CCCC1`: the pIC50 in [1] was less than 6.00; in test [3], less than 6.00; in [4], 6.40; in test [6] it was less than 6.00. Also, the figures for the Activity in test [2] and in test [5] were 0.3% and 7%, respectively.
With `Cc1ncsc1-c1ccc(CNC(=O)[C@@H]2C[C@@H](O)CN2C(=O)[C@@H](NC(=O)CCCCCCCCCCNC(=O)c2cc3c(cc2CS(C)(=O)=O)-c2cn(C)c(=O)c4[nH]cc(c24)CN3c2ncc(F)cc2F)C(C)(C)C)cc1`, in [7], the outcome was inactive.
In the case of `CC[C@@H]1C(=O)N(C)c2cnc(Nc3ccc(C(=O)NC4CCN(CCCCCCC(=O)Nc5cccc6c5C(=O)N(C5CCC(=O)NC5=O)C6=O)CC4)cc3OC)nc2N1C1CCCC1` (some centres not stated), the Activity worked out at 18% in [8] and 94% in [10]. Further, the pIC50 in test [1] is 7.05; in test [3], 7.32; in test [4] it was 7.27; in [6] it was 6.31. In test [9], the outcome was Active.
Regarding `CC[C@@H]1C(=O)N(C)c2cnc(Nc3ccc(C(=O)NC4CCN(CCCCCCCC(=O)N[C@H](C(=O)N5C[C@H](O)C[C@H]5C(=O)NCc5ccc(-c6scnc6C)cc5)C(C)(C)C)CC4)cc3OC)nc2N1C1CCCC1`, the pIC50 in [1] is 6.28; in test [3], less than 6.00; in test [4] it was 6.80; in test [6], less than 6.00. Further, the Activity in test [2] was 6%; in [5], 22%.
With `Cc1ncsc1-c1ccc([C@H](C)NC(=O)[C@@H]2C[C@@H](O)CN2C(=O)[C@@H](NC(=O)COCCCOCCNC(=O)C[C@@H]2N=C(c3ccc(Cl)cc3)c3c(sc(C)c3C)-n3c(C)nnc32)C(C)(C)C)cc1`, in test [11], the outcome was inactive.
For `CC[C@@H]1C(=O)N(C)c2cnc(Nc3ccc(C(=O)NC4CCN(CCCCCCCCCC(=O)Nc5cccc6c5C(=O)N(C5CCC(=O)NC5=O)C6=O)CC4)cc3OC)nc2N1C1CCCC1` (some centres not stated), the Activity was found to be 7% in test [8] and 93% in [10]. Further, the pIC50 in test [1] was 6.88; in test [3], 7.20; in test [4], 6.90; in test [6] it was 6.28. In addition, in test [9], the result was Active.
`CC[C@@H]1C(=O)N(C)c2cnc(Nc3ccc(C(=O)NC4CCN(C)CC4)cc3OC)nc2N1C1CCCC1`: the Activity in test [12] and in test [13] was 0% each time.
Turning to `CC[C@@H]1C(=O)N(C)c2cnc(Nc3ccc(C(=O)NC4CCN(CCCCCCC(=O)N[C@H](C(=O)N5C[C@H](O)C[C@H]5C(=O)NCc5ccc(-c6scnc6C)cc5)C(C)(C)C)CC4)cc3OC)nc2N1C1CCCC1`, the pIC50 in [1] is less than 6.00; in test [3] it was less than 6.00; in test [4], 6.71; in [6], less than 6.00. The figures for the Activity in test [2] and in test [5] were 0% and 10%, respectively.
`CC[C@@H]1C(=O)N(C)c2cnc(Nc3ccc(C(=O)NC4CCN(CCCCCCCCCC(=O)N[C@H](C(=O)N5C[C@H](O)C[C@H]5C(=O)NCc5ccc(-c6scnc6C)cc5)C(C)(C)C)CC4)cc3OC)nc2N1C1CCCC1`: the pIC50 is 7.18 in test [1], 6.65 in test [3], 7.28 in test [4] and 6.03 in test [6]. Besides, the Activity in test [2] amounted to 8%; in [5], 50%.
